“And” between values parts separate entries of the source, which are not always exact repeats. Equal entries are not always repeated.
Tested on: 855422-203-R-J1-PDC spheroids with HUVEC/MSC, viability
Assay: Anticancer human tumor 855422-203-R-J1-PDC patient-derived bladder carcinoma cell line growth inhibition [PI3K]
Details: for viability, T/C: stronger effect = lower value
Method in brief: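 Combination activity was assessed by viability in multicellular tumor spheroids carrying HUVEC and MSC components. Agents were tested with PI3K inhibitors from a Cmax-based top dose (or 10 microM) downward in half-log increments.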

[1] = curve of first compound, second compound 0.00316 µM
[2] = curve of first compound, second compound 0.01 µM
[3] = curve of first compound, second compound 0.0316 µM
[4] = curve of first compound, second compound 0.1 µM
[5] = curve of first compound, second compound 0.316 µM
[6] = curve of first compound, second compound 1 µM
[7] = second compound 0.00316 µM, first compound 0.0316 µM
[8] = second compound 0.00316 µM, first compound 0.1 µM
[9] = second compound 0.01 µM, first compound 0.0316 µM
[10] = second compound 0.01 µM, first compound 0.1 µM
[11] = second compound 0.0316 µM, first compound 0.0316 µM
[12] = second compound 0.0316 µM, first compound 0.1 µM
[13] = second compound 0.1 µM, first compound 0.0316 µM
[14] = second compound 0.1 µM, first compound 0.1 µM
[15] = second compound 0.316 µM, first compound 0.0316 µM
[16] = second compound 0.316 µM, first compound 0.1 µM
[17] = second compound 1 µM, first compound 0.0316 µM
[18] = second compound 1 µM, first compound 0.1 µM
[19] = second compound 0.00316 µM, first compound 0.316 µM
[20] = second compound 0.00316 µM, first compound 1 µM
[21] = second compound 0.00316 µM, first compound 3.16 µM
[22] = second compound 0.00316 µM, first compound 10 µM
[23] = second compound 0.01 µM, first compound 0.316 µM
[24] = second compound 0.01 µM, first compound 1 µM
[25] = second compound 0.01 µM, first compound 3.16 µM
[26] = second compound 0.01 µM, first compound 10 µM
[27] = second compound 0.0316 µM, first compound 0.316 µM
[28] = second compound 0.0316 µM, first compound 1 µM
[29] = second compound 0.0316 µM, first compound 3.16 µM
[30] = second compound 0.0316 µM, first compound 10 µM
[31] = second compound 0.1 µM, first compound 0.316 µM
[32] = second compound 0.1 µM, first compound 1 µM
[33] = second compound 0.1 µM, first compound 3.16 µM
[34] = second compound 0.1 µM, first compound 10 µM
[35] = second compound 0.316 µM, first compound 0.316 µM
[36] = second compound 0.316 µM, first compound 1 µM
[37] = second compound 0.316 µM, first compound 3.16 µM
[38] = second compound 0.316 µM, first compound 10 µM
[39] = second compound 1 µM, first compound 0.316 µM
[40] = second compound 1 µM, first compound 1 µM
[41] = second compound 1 µM, first compound 3.16 µM
[42] = second compound 1 µM, first compound 10 µM
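Further: agents incubated with spheroids for one week before read-out.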
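Wherever viability, T/C is given: 100% = DMSO vehicle-treated control wells.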

SMILES: Cn1ncnc1[C@H]1c2n[nH]c(=O)c3cc(F)cc(c23)N[C@@H]1c1ccc(F)cc1 + CC(Nc1ccc2c(c1)OCCn1cc(N3C(=O)OCC3C(F)F)nc1-2)C(N)=O
- IC50 [1]: > 100 nM
- IC50 [2]: > 100 nM
- IC50 [3]: > 100 nM
- IC50 [4]: > 100 nM
- IC50 [5]: 11.2 nM
- IC50 [6]: < 0.316 nM
- viability, T/C (second compound 0.00316 µM, first compound 0.000316 µM): 104%
- viability, T/C (second compound 0.00316 µM, first compound 0.001 µM): 91.8%
- viability, T/C (second compound 0.00316 µM, first compound 0.00316 µM): 107%
- viability, T/C (second compound 0.00316 µM, first compound 0.01 µM): 87.5%
- viability, T/C [7]: 97.8%
- viability, T/C [8]: 109%
- viability, T/C (second compound 0.01 µM, first compound 0.000316 µM): 114%
- viability, T/C (second compound 0.01 µM, first compound 0.001 µM): 92.5%
- viability, T/C (second compound 0.01 µM, first compound 0.00316 µM): 97%
- viability, T/C (second compound 0.01 µM, first compound 0.01 µM): 99.4%
- viability, T/C [9]: 100%
- viability, T/C [10]: 104%
- viability, T/C (second compound 0.0316 µM, first compound 0.000316 µM): 96.4%
- viability, T/C (second compound 0.0316 µM, first compound 0.001 µM): 92.3%
- viability, T/C (second compound 0.0316 µM, first compound 0.00316 µM): 90.6%
- viability, T/C (second compound 0.0316 µM, first compound 0.01 µM): 88.3%
- viability, T/C [11]: 96%
- viability, T/C [12]: 91.8%
- viability, T/C (second compound 0.1 µM, first compound 0.000316 µM): 74.7%
- viability, T/C (second compound 0.1 µM, first compound 0.001 µM): 72.9%
- viability, T/C (second compound 0.1 µM, first compound 0.00316 µM): 55.5%
- viability, T/C (second compound 0.1 µM, first compound 0.01 µM): 69%
- viability, T/C [13]: 78%
- viability, T/C [14]: 80.8%
- viability, T/C (second compound 0.316 µM, first compound 0.000316 µM): 56.4%
- viability, T/C (second compound 0.316 µM, first compound 0.001 µM): 56%
- viability, T/C (second compound 0.316 µM, first compound 0.00316 µM): 42.4%
- viability, T/C (second compound 0.316 µM, first compound 0.01 µM): 56.1%
- viability, T/C [15]: 54.6%
- viability, T/C [16]: 40.7%
- viability, T/C (second compound 1 µM, first compound 0.000316 µM): 39.1%
- viability, T/C (second compound 1 µM, first compound 0.001 µM): 36.7%
- viability, T/C (second compound 1 µM, first compound 0.00316 µM): 35.7%
- viability, T/C (second compound 1 µM, first compound 0.01 µM): 35.6%
- viability, T/C [17]: 33.5%
- viability, T/C [18]: 27.2%

SMILES: C=CC(=O)N1CCN(c2nc(=O)n(-c3c(C)ccnc3C(C)C)c3nc(-c4c(O)cccc4F)c(F)cc23)C(C)C1 (centres undefined) + COc1c(OCCCN2CCOCC2)ccc2c3n(c(=NC(=O)c4cnc(N)nc4)nc12)CCN3
- IC50 [1]: > 10000 nM
- IC50 [2]: > 10000 nM
- IC50 [3]: > 10000 nM
- IC50 [4]: < 31.6 nM
- IC50 [5]: < 31.6 nM
- IC50 [6]: < 31.6 nM
- viability, T/C [7]: 94%
- viability, T/C [8]: 90.8%
- viability, T/C [19]: 116%
- viability, T/C [20]: 98.8%
- viability, T/C [21]: 101%
- viability, T/C [22]: 97%
- viability, T/C [9]: 82%
- viability, T/C [10]: 99.4%
- viability, T/C [23]: 98%
- viability, T/C [24]: 89.9%
- viability, T/C [25]: 93.6%
- viability, T/C [26]: 103%
- viability, T/C [11]: 52%
- viability, T/C [12]: 60.2%
- viability, T/C [27]: 66%
- viability, T/C [28]: 79.2%
- viability, T/C [29]: 87.2%
- viability, T/C [30]: 92.6%
- viability, T/C [13]: 24.5%
- viability, T/C [14]: 34.4%
- viability, T/C [31]: 33.5%
- viability, T/C [32]: 42.1%
- viability, T/C [33]: 37.2%
- viability, T/C [34]: 34.9%
- viability, T/C [15]: 9.32%
- viability, T/C [16]: 8.33%
- viability, T/C [35]: 10.5%
- viability, T/C [36]: 10.1%
- viability, T/C [37]: 11.6%
- viability, T/C [38]: 7.98%
- viability, T/C [17]: 3.32%
- viability, T/C [18]: 4.63%
- viability, T/C [39]: 3.78%
- viability, T/C [40]: 3.95%
- viability, T/C [41]: 3.61%
- viability, T/C [42]: 1.93%

SMILES: CCN1CCN(Cc2ccc(Nc3ncc(F)c(-c4cc(F)c5nc(C)n(C(C)C)c5c4)n3)nc2)CC1
- viability, T/C (compound 0.00316 µM): 111% [middle of 4 runs]
- viability, T/C (compound 0.0316 µM): 107% [middle of 4 runs]
- viability, T/C (compound 0.1 µM): 83.3% [middle of 4 runs]
- viability, T/C (compound 0.316 µM): 71.9% and 69.7% (2×) and 83.9%
- viability, T/C (compound 1 µM): 60.2% [middle of 4 runs]
- IC50 (curve of compound): > 1000 nM

SMILES: CNC(=O)c1ccc(N2C(=S)N(c3ccc(C#N)c(C(F)(F)F)c3)C(=O)C2(C)C)cc1F + Cc1nc(NC(=O)N2CCCC2C(N)=O)sc1-c1ccnc(C(C)(C)C(F)(F)F)c1
- IC50 [3]: > 10000 nM
- IC50 [4]: > 10000 nM
- IC50 [5]: > 10000 nM
- IC50 [6]: > 10000 nM
- IC50 (curve of first compound, second compound 3.16 µM): 31.6 nM
- IC50 (curve of first compound, second compound 10 µM): < 31.6 nM
- viability, T/C [11]: 109%
- viability, T/C [12]: 95.3%
- viability, T/C [27]: 99.1%
- viability, T/C [28]: 87.4%
- viability, T/C [29]: 80.7%
- viability, T/C [30]: 74.5%
- viability, T/C [13]: 99.7%
- viability, T/C [14]: 97.8%
- viability, T/C [31]: 96.7%
- viability, T/C [32]: 84.8%
- viability, T/C [33]: 88.1%
- viability, T/C [34]: 79%
- viability, T/C [15]: 98.1%
- viability, T/C [16]: 83.3%
- viability, T/C [35]: 96.7%
- viability, T/C [36]: 87.6%
- viability, T/C [37]: 86.8%
- viability, T/C [38]: 77.4%
- viability, T/C [17]: 72.5%
- viability, T/C [18]: 75.7%
- viability, T/C [39]: 73.7%
- viability, T/C [40]: 76.8%
- viability, T/C [41]: 82.5%
- viability, T/C [42]: 61.8%
- viability, T/C (second compound 3.16 µM, first compound 0.0316 µM): 47.4%
- viability, T/C (second compound 3.16 µM, first compound 0.1 µM): 49.6%
- viability, T/C (second compound 3.16 µM, first compound 0.316 µM): 44.6%
- viability, T/C (second compound 3.16 µM, first compound 1 µM): 51.5%
- viability, T/C (second compound 3.16 µM, first compound 3.16 µM): 54.1%
- viability, T/C (second compound 3.16 µM, first compound 10 µM): 36.7%
- viability, T/C (second compound 10 µM, first compound 0.0316 µM): 24.1%
- viability, T/C (second compound 10 µM, first compound 0.1 µM): 27.6%
- viability, T/C (second compound 10 µM, first compound 0.316 µM): 24.7%
- viability, T/C (second compound 10 µM, first compound 1 µM): 31.2%
- viability, T/C (second compound 10 µM, first compound 3.16 µM): 29.4%
- viability, T/C (second compound 10 µM, first compound 10 µM): 16.8%

SMILES: C[C@@H](NC(=O)c1ncnc(N)c1Cl)c1ncc(C(=O)Nc2cc(C(F)(F)F)c(Cl)cn2)s1 + COc1c(OCCCN2CCOCC2)ccc2c3n(c(=NC(=O)c4cnc(N)nc4)nc12)CCN3
- IC50 [1]: > 10000 nM
- IC50 [2]: > 10000 nM
- IC50 [3]: > 10000 nM
- IC50 [4]: < 31.6 nM
- IC50 [5]: < 31.6 nM
- IC50 [6]: < 31.6 nM
- viability, T/C [7]: 93.8%
- viability, T/C [8]: 91.3%
- viability, T/C [19]: 104%
- viability, T/C [20]: 97.4%
- viability, T/C [21]: 109%
- viability, T/C [22]: 113%
- viability, T/C [9]: 80%
- viability, T/C [10]: 85.2%
- viability, T/C [23]: 88.5%
- viability, T/C [24]: 89.4%
- viability, T/C [25]: 108%
- viability, T/C [26]: 83%
- viability, T/C [11]: 59.4%
- viability, T/C [12]: 69.3%
- viability, T/C [27]: 68.8%
- viability, T/C [28]: 61.6%
- viability, T/C [29]: 71.3%
- viability, T/C [30]: 36.7%
- viability, T/C [13]: 35.9%
- viability, T/C [14]: 38.3%
- viability, T/C [31]: 33.7%
- viability, T/C [32]: 35.9%
- viability, T/C [33]: 27.8%
- viability, T/C [34]: 16.2%
- viability, T/C [15]: 13.4%
- viability, T/C [16]: 12.5%
- viability, T/C [35]: 12.5%
- viability, T/C [36]: 13.7%
- viability, T/C [37]: 11.2%
- viability, T/C [38]: 5.99%
- viability, T/C [17]: 4.22%
- viability, T/C [18]: 7.01%
- viability, T/C [39]: 5.73%
- viability, T/C [40]: 4.13%
- viability, T/C [41]: 3.47%
- viability, T/C [42]: 1.26%

SMILES: Cc1nc(NC(=O)N2CCCC2C(N)=O)sc1-c1ccnc(C(C)(C)C(F)(F)F)c1 (centres undefined)
- viability, T/C (compound 0.0316 µM): 107% [middle of 8 runs]
- viability, T/C (compound 1 µM): 75.8% [middle of 8 runs]
- viability, T/C (compound 3.16 µM): 43% [middle of 8 runs]
- viability, T/C (compound 10 µM): 22.2% [middle of 8 runs]
- IC50 (compound alone, run of 05/08/2023): 2.53 µM [middle of 8 runs]

Reference: PubChem BioAssay AID1963967 (Molecular Pharmacology Branch, DTP, NCI, 2024)
